From patent publication US6107549A, “Genetically engineered plant resistance to thiazopyr and other pyridine herbicides” (Monsanto Company, priority 1999, dated 2000)
Where two headings read alike, the source gives them in different places.

What was measured:
pyridine-esterase = molecular target: T1, pyridine-esterase (Oryctolagus cuniculus, UniProt P12337, A196R/H30K); type: biochemical, rabbit; conditions: tobacco line #37437 extract, FIG. 4
T1 construct: made in house; host or cells: transgenic tobacco (Samson) and tomato (UC82B) plants, tissue extracts
T1 sequence (P12337 19-565 H30K/A196R): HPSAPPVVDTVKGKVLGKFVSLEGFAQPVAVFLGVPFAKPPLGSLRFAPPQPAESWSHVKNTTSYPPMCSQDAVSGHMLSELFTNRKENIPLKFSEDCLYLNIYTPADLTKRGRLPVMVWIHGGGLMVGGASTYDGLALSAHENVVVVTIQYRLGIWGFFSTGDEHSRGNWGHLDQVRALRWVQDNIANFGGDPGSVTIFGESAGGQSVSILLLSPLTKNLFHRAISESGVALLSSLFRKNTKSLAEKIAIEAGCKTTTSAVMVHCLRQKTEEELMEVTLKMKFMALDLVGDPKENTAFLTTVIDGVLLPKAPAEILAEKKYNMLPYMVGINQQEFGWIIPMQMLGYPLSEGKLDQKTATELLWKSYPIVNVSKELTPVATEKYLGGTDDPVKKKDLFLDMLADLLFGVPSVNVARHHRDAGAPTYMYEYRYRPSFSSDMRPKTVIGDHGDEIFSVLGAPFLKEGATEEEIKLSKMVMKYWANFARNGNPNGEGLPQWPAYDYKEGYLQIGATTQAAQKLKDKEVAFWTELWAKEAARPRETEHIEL
Procedure: (§1) Esterase activity assays. Esterase activity was measured in vitro by conversion of either [^14 C]thiazopyr or [^14 C]MON 14300 to their corresponding monoacid. Pyridine-esterase activity was assayed during protein purification and from tissue extracts of transgenic plants. The homogenizing buffer for plant tissues consisted of 100 mM Tris pH 8.0, 1 mM EDTA, 1 mM DTT, and 10% glycerol in water. Plant tissues (1 g/ml buffer) including leaves, seeds, flowers, seedlings, etc. were homogenized in conical centrifuge tubes using a spinning pestle at 4° C. Following centrifugation (12,000× g), the supernatant (250 μl) was assayed immediately for esterase activity by incubation with [^14 C]thiazopyr or [^14 C]MON 14300 (4 μg) in 0.1 M Tris pH 8.0 buffer (50 μl) at 37° C. The reaction was sampled (100 μL) at various times (0.5 to 100 hr) to generate a kinetic profile of monoacid formation. The reaction was stopped by addition of 1% trifluoroacetic acid in acetonitrile (v/v, 150 μl). Following centrifugation (12,000× g for 3 min), the supernatant was analyzed by HPLC/RAD (radioactivity detection) to resolve the monoacid from the parent herbicide and other metabolites. Control reactions in the absence of the esterase recovered un-reacted thiazopyr or MON 14300 for the duration of experiments. Esterase activity was also assayed during protein purification following a similar procedure except a single time-point (1-2 hrs) of incubation was selected within the linear range of reaction. In vitro assays also employed three commonly used calorimetric (p-nitrophenyl butyrate) or fluorescent (4-methyl umbelliferyl butyrate and 5-bromo-4-chloro-3-indolylacetate) substrates. These substrates are useful in rapidly and qualitatively detecting general esterase activity.
Tissue extracts from 3 tobacco R1 seedlings were employed for further studies. Two of the lines (#37437 and #37432) expressed high levels of esterase (~0.5%) and one line (#37436) which expressed no pyridine-esterase was used as negative control. Tissue extracts were incubated with [^14 C]MON 14300 and formation of the monoacid monitored with time. […] In comparison, less that 2% monoacid was detected in line (#37436). […] First, pyridine-esterase was capable of driving the hydrolysis reaction to completion with no apparent product inhibition, and second, there was no endogenous esterase activity in tobacco which catalyzed MON 14300 hydrolysis.

RLE3 = molecular target: T2, RLE3 (Oryctolagus cuniculus, UniProt P12337, A196R/H30K); experiment: Esterase activity of RLE3 cDNA expressed in insect cells; type: biochemical, rabbit; conditions: culture media from RLE3 cells; esterase inhibitor
T2 construct: 19-residue synthetic ER signal peptide (design based on the homologous rat esterase, Robbi et al. 1990; Ala added after Met) (N); made in house; host or cells: Spodoptera frugiperda SF9 cells, baculovirus
T2 sequence (P12337 with tags, fused parts or gaps H30K/A196R): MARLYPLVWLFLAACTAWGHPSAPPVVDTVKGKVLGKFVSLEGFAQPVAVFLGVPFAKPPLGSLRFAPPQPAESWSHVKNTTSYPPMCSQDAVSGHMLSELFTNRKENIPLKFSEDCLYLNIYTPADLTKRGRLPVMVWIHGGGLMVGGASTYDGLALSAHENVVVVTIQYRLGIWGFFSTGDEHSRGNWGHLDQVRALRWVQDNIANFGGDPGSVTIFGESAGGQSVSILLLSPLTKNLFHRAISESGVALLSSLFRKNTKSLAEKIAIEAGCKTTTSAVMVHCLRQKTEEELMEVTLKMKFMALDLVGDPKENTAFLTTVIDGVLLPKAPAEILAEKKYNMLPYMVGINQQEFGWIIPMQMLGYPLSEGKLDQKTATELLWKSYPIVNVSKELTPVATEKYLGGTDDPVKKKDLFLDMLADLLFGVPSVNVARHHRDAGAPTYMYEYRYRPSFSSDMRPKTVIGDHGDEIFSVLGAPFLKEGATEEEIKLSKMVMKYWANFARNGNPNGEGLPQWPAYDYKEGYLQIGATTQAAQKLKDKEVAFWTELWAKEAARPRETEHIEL
Procedure: as §1
Expression of RLE1 and RLE3 cDNAs in insect cells. Mature rabbit liver esterases are glycoproteins which reside in the lumen of the endoplasmic reticulum (ER) (Korza et al., 1988). […]

[1] = Feng et al., 1995b; cited from earlier work

In the case of `COC(=O)c1c(Cl)nn(C)c1S(=O)(=O)NC(=O)Nc1nc(OC)cc(OC)n1`, the “hydrolysis by pyridine-esterase (substrate specificity)” value (from here on “hydrolysis by pyridine-esterase”) (pyridine-esterase) is reported as “little to no hydrolysis” and the “hydrolysis by pyridine-esterase” value (pyridine-esterase; listed as halosulfiron) is reported as “not”.
In the case of `O=[N+]([O-])c1ccc(OP(=O)(O)Oc2ccc([N+](=O)[O-])cc2)cc1` [bis(p-nitropheyl) phosphate], the “inactivation of esterase activity” value (RLE3) is reported as “inactivated”.
In the case of `CC(C)Cc1c(C(=O)O)c(C(F)F)nc(C(F)(F)F)c1C1=NCCS1` [monoacid metabolite], the herbicidal activity [1] is given as “virtually devoid of any herbicidal activity”.
In the case of `CSC(=O)c1c(C(F)F)nc(C(F)(F)F)c(C(=O)SC)c1CC(C)C` [Dithiopyr, dithiopyr], the “hydrolysis by pyridine-esterase” value (pyridine-esterase) is reported as “not hydrolyzed”.
